Earlier results in patent publication US6057161A (priority 1997, dated 2000).
Read-outs that look alike come from different tables or passages of the source.

| Structure (SMILES) | metabolism, accumulation or excretion (in words) (body) | time found in the urine after administration of heroin (in vivo) | further results |
| --- | --- | --- | --- |
| CN1[C@H]2CC[C@@H]1[C@@H](C(=O)O)[C@@H](OC(=O)c1ccccc1)C2 [Benzoylecgonine] | can be detected in the urine for a longer period of time than ecgonine methyl ester |  |  |
| COC(=O)[C@H]1[C@@H](OC(=O)c2ccccc2)C[C@@H]2CC[C@H]1N2C [Cocaine] |  |  | metabolism, accumulation or excretion (in words) (in vivo): rapidly metabolized in the body |
| CN1CC[C@]23c4c5ccc(O[C@@H]6O[C@H](C(=O)O)[C@@H](O)[C@H](O)[C@H]6O)c4O[C@H]2[C@@H](O)C=C[C@H]3[C@H]1C5 [Morphine-3-glucoronide, morphine-3-glucuronide] |  | up to 40 hours |  |
| CN1CC[C@]23c4c5ccc(O)c4O[C@H]2[C@@H](O)C=C[C@H]3[C@H]1C5 [Morphine] |  | up to 40 hours |  |
| CCCCCc1cc(O)c2c(c1)OC(C)(C)[C@@H]1CCC(C(=O)O)=C[C@@H]21 [THC-COOH] | excreted in the urine as a glucuronic acid conjugate at detectable levels |  |  |
